Patent US11161876B2, “Anti-inflammatory nanofibers” (Northwestern University, priority 2015, dated 2021)
“Also recorded” adds a separate entry of the source. * marks the point of attachment. C16 alkyl = CCCCCCCCCCCCCCCC*

Columns and labels:
[1] = system: CD206+ M2 macrophages; assay: M2 macrophage subtype (CD206) distribution in regenerating bladder tissue; assay type: in vivo, rat; conditions: for M2 macrophage levels, in words: 10 days to 5 weeks
Description: (§1) Athymic female rats (weighing ˜200 g and 8-10 weeks old; National Cancer Institute Animal Production Program) underwent bladder augmentation (ref. 15; herein incorporated by reference in its entirety). Athymic rats were chosen for this study to solely examine the innate immune response to inflammation without influence of the adaptive immune response. In order to induce anesthesia, animals were given intraperitoneal injections of 60 mg/kg ketamine and 5 mg/kg xylazine. A second injection consisting of Buprenex (1 mg/kg) was administered subcutaneously to alleviate any pain/discomfort during and following surgical procedures. An approximate 1.5 cm midline vertical skin incision was created to expose the abdominal fascia and muscles. This was immediately followed by the separation of the wall leading to the identification of the bladder. An approximate 70% supratrigonal cystectomy was performed from anterior to posterior creating a clamshell. Immediately prior to bladder augmentation procedures, samples of the pro-inflammatory biological scaffold, small intestinal submucosa (SIS (0.5×0.5 cm); Cook Biotech.) (refs. 12,13,16; herein incorporated by reference in their entireties) were thoroughly dip-coated separately in one of the previously described AIF-PAs following gelation procedures. The sections of SIS were dip-coated for approximately 20 seconds and allowed to adhere to the SIS for an additional 30 seconds. Dip-coating procedures were performed at room temperature in air. The cystectomized bladder defect was then augmented with: 1) SIS (non-AIF-PA coated SIS; n=8 animals over both time-points); 2) AIF-PA1 coated SIS (denoted as SIS/AIF-PA1; n=11 animals over both time-points); 3) AIF-PA2 coated SIS (denoted as SIS/AIF-PA2; n=8 animals over both time-points); 4) AIF-PA3 coated SIS (denoted as SIS/AIF-PA3; n=3); 5) AIF-PA4 coated SIS (denoted as SIS/AIF-PA4; n=3 animals); 6) AIF-PA5 coated SIS (denoted as SIS/AIF-PA5; n=3 animals); and 7) AIFC-PA6 coated SIS (denoted as SIS/AIFC-PA6; n=9 animals over both time-points). The bladder was finally covered with omentum after being closed in a watertight manner utilizing 7-0 polyglactin suture. The abdominal wall was then closed in a single layer with 5-0 ethibond running suture and the skin re-approximated with 9 mm autoclips. Each group was sacrificed at 10 day and 5 week time-points.
(§2) Tissue sections comprised of SIS alone, SIS/AIF-PA1, SIS/AIF-PA2, and SIS/AIF-PA6 augmentations were subjected to immunofluorescence staining by initially undergoing antigen retrieval which consisted of 15 min of boiling in citrate buffer (0.01M citrate solution, pH 6.0 with 0.05% Tween-20) followed by cooling at room temperature for approximately 20 minutes. The antibody staining process consisted of a blocking step for 15 min in bovine serum albumin (BSA, 5 mg/ml) followed by a 40 minutes incubation at room temperature with the primary antibody. After washing with DPBS, slides were incubated for 30 min with a secondary antibody and eventually rinsed with DPBS and air dried. Slides were mounted with Vectashield (Vector Laboratories). Primary antibodies were directed against epitopes for the inflammatory markers CD68 (macrophage) (refs. 18,19; herein incorporated by reference in their entireties) MPO (neutrophil) (ref. 20; herein incorporated by reference in its entirety) or the inflammation-related proteins IL1β, TNFα, IL-10, IL-13, CD206 (M2 macrophage) (refs. 21-25; herein incorporated by reference in their entireties) and CD86 (M1 macrophage) (ref. 26; herein incorporated by reference in its entirety). Antibodies directed against the ECM in regenerating bladder tissue (including COL4A3 and fibronectin) were also utilized. Alexa Red 555 or FITC conjugated secondary antibodies (Molecular Probes) were utilized for visualization (ref. 15; herein incorporated by reference in its entirety). […]

[2] = system: Rat Bladder Augmentation Model; assay: Bladder capacity measurement of augmented bladders; assay type: in vivo; conditions: 5 weeks post-augmentation vs pre-surgery; means ± SE
Description: Athymic female rats (weighing ˜200 g and 8-10 weeks old; National Cancer Institute Animal Production Program) underwent bladder augmentation (ref. 15; herein incorporated by reference in its entirety). Athymic rats were chosen for this study to solely examine the innate immune response to inflammation without influence of the adaptive immune response. In order to induce anesthesia, animals were given intraperitoneal injections of 60 mg/kg ketamine and 5 mg/kg xylazine. A second injection consisting of Buprenex (1 mg/kg) was administered subcutaneously to alleviate any pain/discomfort during and following surgical procedures. An approximate 1.5 cm midline vertical skin incision was created to expose the abdominal fascia and muscles. This was immediately followed by the separation of the wall leading to the identification of the bladder. An approximate 70% supratrigonal cystectomy was performed from anterior to posterior creating a clamshell. Immediately prior to bladder augmentation procedures, samples of the pro-inflammatory biological scaffold, small intestinal submucosa (SIS (0.5×0.5 cm); Cook Biotech.) (refs. 12,13,16; herein incorporated by reference in their entireties) were thoroughly dip-coated separately in one of the previously described AIF-PAs following gelation procedures. The sections of SIS were dip-coated for approximately 20 seconds and allowed to adhere to the SIS for an additional 30 seconds. Dip-coating procedures were performed at room temperature in air. […]
The bladders of anesthetized athymic rats were exposed through the abdomen as previously described. […] Continuous reading of the transvesical pressure was measured and plotted using LabChart 7.3 software (AD Instruments). […] Bladder capacity was measured by a modified protocol (ref. 13; herein incorporated by reference in its entirety). […]

[3] = system: CD68+ macrophages; assay: Immunofluorescence quantification of CD68+ macrophages in regenerated bladder tissue; assay type: in vivo, rat
Description: as §1, §2

[4] = system: TNFα; assay: TNFα expression in regenerated bladder tissue (immunofluorescence); assay type: in vivo, rat; conditions: for Cytokine expression (shown as percentage of cells staining positive) Pro-inflammatory TNFα: 5 weeks post-augmentation, means ± SE; for percentage of cells staining positive for TNFα: 10 days post-augmentation
Description: as §1, §2

[5] = system: Rat Bladder Augmentation Model; assay: Blood vessel quantification in areas of bladder tissue regeneration; assay type: in vivo; conditions: means±SE
Description: as §1
Trichrome sample images were opened with Adobe Photoshop CS3 and were initially characterized utilizing a Nikon Eclipse 50i Microscope in addition to Spot Advanced Imaging Software. Vessel numbers were quantified utilizing the pen tool based upon n=10 images per graft in regenerated areas. Individual vessels were selected manually and subsequently quantified using the image histogram tool to acquire pixel density for each vessel. Data is represented as mean number of vessels/mm^2 (means±SE).

[6] = system: Rat Bladder Augmentation Model; assay: Urodynamic testing (UDS) of augmented bladders; assay type: in vivo; conditions: for intravesical pressure during voiding: post-augmentation
Description: as §1
The bladders of anesthetized athymic rats were exposed through the abdomen as previously described. A 20 gauge cannula (Becton Dickinson and Co.) was delicately placed into the bladder through the dome in order to obtain intravesical measurements. The cannula was connected to the Pump 11 Elite Syringe Pump (Harvard Apparatus) and to a physiological pressure transducer (SP844, MEMSCAP). The pressure transducer was connected to a bridge amplifier (Model FE221; AD Instruments). Continuous reading of the transvesical pressure was measured and plotted using LabChart 7.3 software (AD Instruments). The fill rate for each study ranged from 150-200 uL per minute. Bladder capacity was measured by a modified protocol (ref. 13; herein incorporated by reference in its entirety). Sterile DPBS was injected into the bladder using a 27 gauge needle in 50 μl increments until fluid leakage was observed from the urethra of the animal. The total volume injected was then noted. This procedure was repeated at least three times per animal. Urine was evacuated from the bladder prior to the start of any bladder capacity measurements utilizing a sterile 27 gauge needle. Urodynamic and bladder capacity measurements were performed immediately prior to augmentation procedures and immediately prior to euthanization.
Bladders underwent urodynamic testing (UDS) pre- and post-augmentation. Bladders were gradually filled with sterile saline until a bladder contraction occurred. Bladder pressures rose during the filling until bladder contractions occurred at intravesical pressures of 30-40 cm H2O (FIG. 5, panels A, C, E, and G). […]

[7] = system: IL-13; assay: IL-13 expression in regenerated bladder tissue (immunofluorescence); assay type: in vivo, rat; conditions: for Cytokine expression (shown as percentage of cells staining positive) Anti-inflammatory IL-13: 5 weeks post-augmentation, means ± SE; for percentage of cells staining positive for IL-13: 10 days post-augmentation
Description: as §1, §2

[8] = system: CD86+ M1 macrophages; assay: M1 macrophage subtype (CD86) distribution in regenerating bladder tissue; assay type: in vivo, rat; conditions: for M1 macrophage levels, in words: 10 days to 5 weeks
Description: as §1, §2

[9] = system: Rat Bladder Augmentation Model; assay: Bladder stone formation in regenerating bladders; assay type: in vivo; conditions: for Bladder Stone Formation (shown as percentage of animals forming stones): 5 weeks post-augmentation; for size of bladder stones formed, in words: rat, in vivo
Source text: Bladder stone formation can be caused by a myriad of factors including those based upon diet as well as genetic makeup and underlying bladder conditions (refs. 57,58; herein incorporated by reference in its entirety).
as §1

[10] = post-augmentation vs pre-augmentation

## C16-VVVAAAEEEHDMNKVLDL (SEQ ID NO:2) ({C16 alkyl}-VVVAAAEEEHDMNKVLDL-NH2) [SIS/AIF-PA2, anti-inflammatory peptide amphiphile, tested dip-coated on small intestinal submucosa (SIS) scaffold]
[1]; 5W post-augmentation
  number of M2 macrophages: 224.7±39.0 cells/mm^2
[1]
  M2 macrophage levels, in words: Comparatively low numbers
[2]
  Bladder Capacity Recovery: 104.4 ± 6.7%
[3]; 5 weeks post-augmentation
  percentage of cells CD68+: 16.5±1.6%
[3]; 10 days post-augmentation
  percentage of cells CD68+: 23.1±3.3%
[4]
  Cytokine expression (shown as percentage of cells staining positive) Pro-inflammatory TNFα: 14.6 ± 1.7 percentage
  percentage of cells staining positive for TNFα: 26.3±2.5%
[5]; 5W post-augmentation
  number of vessels in regenerated tissue: 96.7±4.4 vessels/mm^2
[5]; 10D post-augmentation
  number of vessels in regenerated tissue: 71.5±6.7 vessels/mm^2
[6]
  intravesical pressure during voiding: approximately 35 cm H2O
[6]; [10]
  intravesical / voiding pressures, in words: very modest decrease in bladder intravesical pressure
[7]
  Cytokine expression (shown as percentage of cells staining positive) Anti-inflammatory IL-13: 32.0 ± 1.8 percentage
  percentage of cells staining positive for IL-13: 41.2±2.2%
[8]; 5W post-augmentation
  number of M1 macrophages: 389.4±62.6 cells/mm^2
[8]
  M1 macrophage levels, in words: Comparatively low numbers
[9]
  Bladder Stone Formation (shown as percentage of animals forming stones): 16.7 percentage
  size of bladder stones formed, in words: a fraction of the size found in control animals

## C16-VVVAAAEEEKLMSQKMVD (SEQ ID NO:6) ({C16 alkyl}-VVVAAAEEEKLMSQKMVD-NH2) [SIS/AIFC-PA6, reference compound]
[1]; 5W post-augmentation
  number of M2 macrophages: 539.3±46.7 cells/mm^2
[1]; 10D post-augmentation
  number of M2 macrophages: 842.5±18.9 cells/mm^2
[2]
  Bladder Capacity Recovery: 105.4 ± 5.1%
[3]; 5 weeks post-augmentation
  percentage of cells CD68+: 42.0±2.6%
[4]
  Cytokine expression (shown as percentage of cells staining positive) Pro-inflammatory TNFα: 42.8 ± 2.2 percentage
  percentage of cells staining positive for TNFα: 65.1±5.1%
[5]; 5W post-augmentation
  number of vessels in regenerated tissue: 53.3±4.4 vessels/mm^2
[5]; 10D post-augmentation
  number of vessels in regenerated tissue: 37.0±2.3 vessels/mm^2
[6]; [10]
  intravesical / voiding pressures, in words: unchanged or even slightly elevated; also recorded: failed to decrease intravesical pressures
[7]
  Cytokine expression (shown as percentage of cells staining positive) Anti-inflammatory IL-13: 20.4 ± 2.6 percentage
  percentage of cells staining positive for IL-13: 28.6±3.0%
[8]; 5W post-augmentation
  number of M1 macrophages: 957.7±106.2 cells/mm^2
[8]; 10D post-augmentation
  number of M1 macrophages: 986.9±18.1 cells/mm^2
[9]
  Bladder Stone Formation (shown as percentage of animals forming stones): 42.9 percentage
  size of bladder stones formed, in words: quite large in size

## C16-VVVAAAEEEMQMKKVLDS (SEQ ID NO:1) ({C16 alkyl}-VVVAAAEEEMQMKKVLDS-NH2) [SIS/AIF-PA1, anti-inflammatory peptide amphiphile, tested dip-coated on small intestinal submucosa (SIS) scaffold]
[1]; 5W post-augmentation
  number of M2 macrophages: 301.7±23.0 cells/mm^2
[1]
  M2 macrophage levels, in words: further decreased by 5 weeks
[2]
  Bladder Capacity Recovery: 112.1 ± 3.3%
[3]; 5 weeks post-augmentation
  percentage of cells CD68+: 17.6±1.8%
[3]; 10 days post-augmentation
  percentage of cells CD68+: 33.4±2.0%
[4]
  Cytokine expression (shown as percentage of cells staining positive) Pro-inflammatory TNFα: 17.4 ± 2.9 percentage
  percentage of cells staining positive for TNFα: 32.8±2.5%
[5]; 5W post-augmentation
  number of vessels in regenerated tissue: 90.7±4.5 vessels/mm^2
[5]; 10D post-augmentation
  number of vessels in regenerated tissue: 71.0±1.5 vessels/mm^2
[6]
  intravesical pressure during voiding: approximately 25 cm H2O
[6]; [10]
  bladder compliance, in words: higher bladder compliance; also recorded: increase in compliance
  intravesical / voiding pressures, in words: decreased intravesical pressures
[7]
  Cytokine expression (shown as percentage of cells staining positive) Anti-inflammatory IL-13: 26.1 ± 2.7 percentage
  percentage of cells staining positive for IL-13: 48.2±2.8%
[8]; 5W post-augmentation
  number of M1 macrophages: 343.4±45.4 cells/mm^2
[8]
  M1 macrophage levels, in words: dropped considerably; also recorded: significant decline over time
[9]
  Bladder Stone Formation (shown as percentage of animals forming stones): 25.0 percentage
  size of bladder stones formed, in words: a fraction of the size found in control animals
